Test [1] has as its system ovalbumin actively sensitized allergic conjunctivitis model of rabbits. In words: Allergic conjunctivitis model evaluation test. It is filed as in vivo, rabbit. As to conditions: eye drop 50 μL four times a day for 4 days plus once, 0.5 hour after challenge. As for the experimental part:
In order to evaluate an anti-allergic action of the present compounds on allergic conjunctivitis, an inhibitory effect on hyperemia in an ovalbumin actively sensitized allergic conjunctivitis model of rabbits was investigated. Incidentally, this effect was evaluated by calculating an inhibitory ratio from the score of the base agent administered group (control group) and the score of the test compound administered group.
A base agent containing a general additive(s) was added to the test compound to prepare test compound suspensions with 1% (WN) and 3% (W/V).
By using male JW rabbits, ovalbumin (200 μg/mL/physiological saline solution) adsorbed on aluminum hydroxide gel was injected 200 μL per eye into bulbar conjunctiva of both eyes of rabbits, respectively, to perform active sensitization.
After 14 days from sensitization or later, the test compound suspension was eye-dropped four times a day for 4 days, and then, at the next day, it was eye-dropped (instillation dose: 50 μL/time) once to both eyes. Incidentally, the base agent was similarly eye-dropped to the base agent administered group (control group).
One hour after the final eye dropping of the test compound suspension, a physiological saline solution containing 0.02% (W/V) of ovalbumin was administered from rabbit ear vein at a dose of 1.5 mL per 1 kg of rabbit to induce allergic conjunctivitis.
After 0.5 hour of the challenge, the degree of hyperemia symptoms of both ocular conjunctiva of rabbits was evaluated according to the following criteria, and the average value of the total of these scores was calculated. […]

Test [2] concerns paracentesis induced intraocular inflammation model of rabbits. In words: Anterior eye inflammation model evaluation test. It is filed as in vivo, rabbit. As to conditions: 3% (W/V) suspension, eye dropped 50 μL four times; 120 minutes after primary puncture. Here is the method:
In order to evaluate an anti-inflammatory action of the present compound on anterior eye inflammation, an inhibitory effect on a number of infiltrated cells into aqueous humor in a paracentesis induced intraocular inflammation model of rabbits was investigated. Incidentally, this effect was evaluated by calculating an inhibitory ratio from a number of infiltrated cells into aqueous humor in the base agent administered group (control group) and a number of infiltrated cells into aqueous humor in the test compound administered group.
A base agent containing a general additive(s) was added to the test compound to prepare a test compound suspension with 3% (W/V).
• 1) Male JW rabbits underwent local anesthesia with 0.4% oxybuprocaine hydrochloride (trade name: Benoxil ophthalmic solution 0.4%), and about 0.1 mL of anterior aqueous humor was collected by using a syringe for tuberculin so as not to touch the iris to carry out primary puncture, whereby an inflammatory response was induced. • 2) Thirty minutes before the primary puncture, heparin was intravenously administered so as to be about 50 unit/kg. • 3) The test compound suspension was eye dropped (instillation dose: 50 μL/time) to both eyes in total four times, 210 minutes before, 60 minutes before, 15 minutes after, and 90 minutes after the primary puncture. […]

Test [3] relates to exorbital lacrimal gland-removed rat dry eye model. The experiment in a line: Dry eye syndrome (dry eye) model evaluation test. It is filed as in vivo. As to conditions: eye drop 5 μL four times a day.
Test [4] has the same test system. In words: Dry eye syndrome (dry eye) model evaluation test. It is filed as in vivo. As to conditions: eye drop 5 μL four times a day. As for the experimental part: In order to evaluate the treatment effect of the present compounds on corneal disorder accompanied by dry eye syndrome (dry eye), a treatment effect on corneal disorder in an exorbital lacrimal gland-removed rat dry eye model was investigated. This model was prepared in accordance with the method of Fujihara, et al. (Invest. Ophthalmol. Vis. Sci., 42(1): 96-100 (2001)). Incidentally, this effect was scored according to the method of Murakami et al. (New Ophthalmologist 21(1): 87-90 (2004)), the extent of corneal disorder was scored and the improvement ratio was calculated from the corneal disorder score of the base agent administered group (control group), the corneal disorder score of the test compound administered group and the corneal disorder score of the normal rat.
A base agent containing a general additive(s) was added to the test compound to prepare test compound suspensions with 0.03% (W/V) and 0.1% (W/V). In addition, a base agent was added to the commercially available drug A to prepare a diluted solution with 0.05% (V/V).
• 1) By using male SD rats, somnopentyl was administered to the rats to apply them general anesthesia, exorbital lacrimal glands were removed, and corneal disorder was induced over 8 weeks thereafter. • 2) The test compound suspension was eye-dropped (instillation dose: 5 μL/time) to both eyes four times a day for 14 days. Incidentally, the base agent was similarly eye-dropped to the administered group (control group), and the commercially available drug A and its diluted solution were similarly eye-dropped. • 3) Fourteen days after the start of eye dropping, the cornea was stained with fluorescein. For each of the upper part, the middle part and the lower part of the cornea, scores of the degree of staining with fluorescein were determined according to the following criteria, and an average value of the total of the scores was calculated. Incidentally, 0.5 was set as an intermediate value between each score of 0, 1, 2 and 3. <<Judgement Standard>>
1: Dyeing is sparse, and the dyed portions of each dot are separated
2: Dyeing is a middle degree and part of the dotted dyed portions is adjacent
3: Dyeing is dense, and the dyed portions of each point are almost adjacent
(Calculation Formula) Corneal disorder improvement ratio (%) of the test compound administered group=(Ao−Ax)/(Ao−An)×100 • Ao: Average value of corneal disorder score of the base agent administered group (control group) • Ax: Average value of corneal disorder score of the test compound administered group • An: Average value of corneal disorder score of normal rat (Test Result and Consideration)
The source holds these as a separate data set.

For `COc1cc(OC[C@@H](O)CC#N)ccc1-c1ccc2c(c1COc1cc(F)ccc1C)N(C)C(=O)C(C)(C)N2` [Compound 5-2, (S)-7-[4-(3-cyano-2-hydroxypropyl)oxy-2-methoxyphenyl]-8-(5-fluoro-2-methyl-phenoxymethyl)-1,3,3-trimethyl-3,4-dihydro-1H-quinoxalin-2-one], in test [1] (3% suspension), the “Eye congestion inhibitory ratio (%)” value was 35%.
Regarding `COc1cc(OC[C@H](C)OC(=O)CN(C)C)ccc1-c1ccc2c(c1COc1cc(F)ccc1C)N(C)C(=O)C(C)(C)N2` [Compound 11-1, (S)-7-[4-[2-(N,N-dimethylaminoacetoxy)propyl]oxy-2-methoxyphenyl]-8-(5-fluoro-2-methylphenoxymethyl)-1,3,3-trimethyl-3,4-dihydro-1H-quinoxalin-2-one], in test [2], the “inhibitory ratio (%) of the number of infiltrated cells into aqueous humor” value is 37%. Also, in test [1] (1% suspension), the “Eye congestion inhibitory ratio (%)” value amounted to 44%. Also, the “Corneal disorder improvement ratio (%) After 7 days eye dropping” value is recorded as 35% in test [3] (0.03%) and 44% in test [3] (0.1%). The “Corneal disorder improvement ratio (%) After 14 days eye dropping” value in test [4] (0.03%) came to 33%; in test [4] (0.1%), 64%.

(Values after patent US10189796B2, “[4-(1,3,3-trimethyl-2-oxo-3,4-dihydro-1H-quinoxalin-7-yl)phenoxy]ethyloxy compound or salt thereof” (SANTEN PHARMACEUTICAL CO., LTD., priority 2015, dated 2019).)
